pIC50: −log10 of the molar value. Some results are limits rather than exact numbers.

ROCK2, sequence (O75116 whole entry, species assumed): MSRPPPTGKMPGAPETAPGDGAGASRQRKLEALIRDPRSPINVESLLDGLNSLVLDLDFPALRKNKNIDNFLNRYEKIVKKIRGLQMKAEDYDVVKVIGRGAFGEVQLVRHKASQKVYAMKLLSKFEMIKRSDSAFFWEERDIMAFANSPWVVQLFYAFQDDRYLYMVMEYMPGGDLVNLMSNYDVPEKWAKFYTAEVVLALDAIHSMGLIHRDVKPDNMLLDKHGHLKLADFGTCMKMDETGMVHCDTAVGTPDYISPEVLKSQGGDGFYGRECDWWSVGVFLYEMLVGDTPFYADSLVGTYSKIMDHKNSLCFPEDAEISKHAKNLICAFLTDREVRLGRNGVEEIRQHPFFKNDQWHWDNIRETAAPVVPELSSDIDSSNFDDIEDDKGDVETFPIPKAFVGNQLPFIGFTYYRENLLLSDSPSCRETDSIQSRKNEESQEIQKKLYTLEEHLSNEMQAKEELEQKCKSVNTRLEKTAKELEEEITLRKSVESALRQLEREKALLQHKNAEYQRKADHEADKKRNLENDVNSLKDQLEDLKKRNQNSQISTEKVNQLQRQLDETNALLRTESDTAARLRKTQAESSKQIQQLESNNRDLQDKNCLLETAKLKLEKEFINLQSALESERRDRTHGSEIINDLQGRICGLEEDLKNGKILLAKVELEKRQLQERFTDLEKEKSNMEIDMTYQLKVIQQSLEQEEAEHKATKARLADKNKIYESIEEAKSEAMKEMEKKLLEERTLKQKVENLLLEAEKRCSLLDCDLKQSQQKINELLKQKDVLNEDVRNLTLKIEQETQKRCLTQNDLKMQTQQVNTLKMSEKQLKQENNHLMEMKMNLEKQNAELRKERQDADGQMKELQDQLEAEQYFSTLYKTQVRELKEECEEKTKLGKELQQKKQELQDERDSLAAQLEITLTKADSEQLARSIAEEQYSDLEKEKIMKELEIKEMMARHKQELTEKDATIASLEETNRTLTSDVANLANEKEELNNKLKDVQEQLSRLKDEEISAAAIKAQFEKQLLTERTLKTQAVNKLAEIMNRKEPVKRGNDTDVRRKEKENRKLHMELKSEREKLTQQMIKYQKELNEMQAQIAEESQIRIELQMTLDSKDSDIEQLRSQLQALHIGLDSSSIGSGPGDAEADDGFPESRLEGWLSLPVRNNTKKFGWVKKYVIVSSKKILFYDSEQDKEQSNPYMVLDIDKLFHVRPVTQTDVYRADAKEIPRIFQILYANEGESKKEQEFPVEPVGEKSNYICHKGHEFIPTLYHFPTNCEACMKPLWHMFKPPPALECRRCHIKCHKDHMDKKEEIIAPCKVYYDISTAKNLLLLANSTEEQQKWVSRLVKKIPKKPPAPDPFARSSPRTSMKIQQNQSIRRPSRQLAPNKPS

The test deals with ROCK2 (Homo sapiens, UniProt O75116). Briefly: ROCK2 kinase inhibition assay (Caliper LABCHIP, FITC peptide substrate). Type of test: biochemical. The settings on record: 5 μM ATP, 1.5 μM peptide substrate; value ranges. Put shortly:
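Rho kinase with 5 μM ATP and 1.5 μM FITC-AHA-AKRRRLSSLRA-OH peptide in HEPES pH 7.5, 20 mM MgCl2, 0.015% Brij-35, 4 mM DTT, DMSO <2%. EDTA stop; phospho and non-phospho peptide separated on LabChip. IC50 from dose-response fit.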
`CCc1nc(-n2ccn(C(C)c3cc(F)cc(OC)c3)c2=O)ccc1-c1cn[nH]c1` (single isomer, unassigned) [Example 362, 1-(6-ethyl-5-(1H-pyrazol-4-yl)pyridin-2-yl)-3-(1-(3-fluoro-5-methoxyphenyl)ethyl)-1H-imidazol-2(3H)-one] gave a pIC50 of over 8.70. The same measure for `CCc1nc(-n2ccn(C(C)c3cc(F)cc(OC)c3)c2=O)ccc1-c1cn[nH]c1` (single isomer, unassigned) [Example 363, 1-(6-ethyl-5-(1H-pyrazol-4-yl)pyridin-2-yl)-3-(1-(3-fluoro-5-methoxyphenyl)ethyl)-1H-imidazol-2(3H)-one]: 5.70 to 6.70; for `CCOc1cccc(C(C)n2ccn(-c3ccc(-c4cn[nH]c4)c(CC)n3)c2=O)c1` (single isomer, unassigned) [Example 364, 1-(1-(3-ethoxyphenyl)ethyl)-3-(6-ethyl-5-(1H-pyrazol-4-yl)pyridin-2-yl)-1H-imidazol-2(3H)-one]: 6.70 to 7.70; for `CCOc1cccc(C(C)n2ccn(-c3ccc(-c4cn[nH]c4)c(CC)n3)c2=O)c1` (single isomer, unassigned) [Example 365, 1-(1-(3-ethoxyphenyl)ethyl)-3-(6-ethyl-5-(1H-pyrazol-4-yl)pyridin-2-yl)-1H-imidazol-2(3H)-one]: 5.70 to 6.70.

`COc1cc(F)cc(C(C)n2ccn(-c3ccc(-c4cn[nH]c4)cc3)c2=O)c1` (single isomer, unassigned) [Example 366, 1-(4-(1H-pyrazol-4-yl)phenyl)-3-(1-(3-fluoro-5-methoxyphenyl)ethyl)-1H-imidazol-2(3H)-one] showed a pIC50 of over 8.70. `COc1cc(F)cc(C(C)n2ccn(-c3ccc(-c4cn[nH]c4)cc3)c2=O)c1` (single isomer, unassigned) [Example 367, 1-(4-(1H-pyrazol-4-yl)phenyl)-3-(1-(3-fluoro-5-methoxyphenyl)ethyl)-1H-imidazol-2(3H)-one] gave a pIC50 of 6.70 to 7.70.

Turning to `CCOc1cccc(C(C)n2ccn(-c3ccc(-c4cn[nH]c4)cc3)c2=O)c1` (single isomer, unassigned) [Example 368, 1-(4-(1H-pyrazol-4-yl)phenyl)-3-(1-(3-ethoxyphenyl)ethyl)-1H-imidazol-2(3H)-one], the pIC50 was 5.70 to 6.70. Then `CCOc1cccc(C(C)n2ccn(-c3ccc(-c4cn[nH]c4)cc3)c2=O)c1` (single isomer, unassigned) [Example 369, 1-(4-(1H-pyrazol-4-yl)phenyl)-3-(1-(3-ethoxyphenyl)ethyl)-1H-imidazol-2(3H)-one], with 7.70 to 8.68; and `CCOc1cccc(C(C)n2ccn(-c3ccc(-c4cn[nH]c4)cn3)c2=O)c1` (single isomer, unassigned) [Example 370, 1-(5-(1H-pyrazol-4-yl)pyridin-2-yl)-3-(1-(3-ethoxyphenyl)ethyl)-1H-imidazol-2(3H)-one], with 7.70 to 8.68. Compound `CCOc1cccc(C(C)n2ccn(-c3ccc(-c4cn[nH]c4)cn3)c2=O)c1` (single isomer, unassigned) [Example 371, 1-(5-(1H-pyrazol-4-yl)pyridin-2-yl)-3-(1-(3-ethoxyphenyl)ethyl)-1H-imidazol-2(3H)-one] gave a pIC50 of 6.70 to 7.70. `CCc1nc(-n2ccn(C(C)c3cccc(OCC4CC4)c3)c2=O)ccc1-c1cn[nH]c1` (single isomer, unassigned) [Example 372, 1-(1-(3-(cyclopropylmethoxy)phenyl)ethyl)-3-(6-ethyl-5-(1H-pyrazol-4-yl)pyridin-2-yl)-1H-imidazol-2(3H)-one] gave a pIC50 of 6.70 to 7.70. Compound `COc1cccc(C(C)n2ccn(-c3ccc(-c4ccncc4F)cc3)c2=O)c1` (single isomer, unassigned) [Example 387, 1-(4-(3-fluoropyridin-4-yl)phenyl)-3-(1-(3-methoxyphenyl)ethyl)-1H-imidazol-2(3H)-one] had a pIC50 of 6.70 to 7.70. The compound `CCc1nc(-n2ccn(C(C)c3ccc(F)c(OC)c3)c2=O)ccc1-c1cn[nH]c1` (single isomer, unassigned) [Example 388, 1-(6-ethyl-5-(1H-pyrazol-4-yl)pyridin-2-yl)-3-(1-(4-fluoro-3-methoxyphenyl)ethyl)-1H-imidazol-2(3H)-one] had a pIC50 of 7.70 to 8.68. Consider `COc1cc(C(C)n2ccn(-c3ccc(-c4cn[nH]c4)c(OC)n3)c2=O)ccc1F` (single isomer, unassigned) [Example 389, 1-(1-(4-fluoro-3-methoxyphenyl)ethyl)-3-(6-methoxy-5-(1H-pyrazol-4-yl)pyridin-2-yl)-1H-imidazol-2(3H)-one], for which the pIC50 is over 8.70.

For the compound `COc1cc(C(C)n2ccn(-c3ccc(-c4cn[nH]c4)c(OC)n3)c2=O)ccc1F` (single isomer, unassigned) [Example 390, 1-(1-(4-fluoro-3-methoxyphenyl)ethyl)-3-(6-methoxy-5-(1H-pyrazol-4-yl)pyridin-2-yl)-1H-imidazol-2(3H)-one], the pIC50 was 6.70 to 7.70. `COc1cc(C(C)n2ccn(-c3ccc(-c4cn[nH]c4)cc3)c2=O)ccc1F` (single isomer, unassigned) [Example 391, 1-(4-(1H-pyrazol-4-yl)phenyl)-3-(1-(4-fluoro-3-methoxyphenyl)ethyl)-1H-imidazol-2(3H)-one] showed a pIC50 of 7.70 to 8.68. `COc1cc(C(C)n2ccn(-c3ccc(-c4cn[nH]c4)cc3)c2=O)ccc1F` (single isomer, unassigned) [Example 392, 1-(4-(1H-pyrazol-4-yl)phenyl)-3-(1-(4-fluoro-3-methoxyphenyl)ethyl)-1H-imidazol-2(3H)-one]: the pIC50 is 5.70 to 6.70. For `COc1cc(F)cc(C(C)n2ccn(-c3ccc(-c4cn[nH]c4)cn3)c2=O)c1` (single isomer, unassigned) [Example 393, 1-(5-(1H-pyrazol-4-yl)pyridin-2-yl)-3-(1-(3-fluoro-5-methoxyphenyl)ethyl)-1H-imidazol-2(3H)-one], the pIC50 was 7.70 to 8.68.

The compound `COc1cc(F)cc(C(C)n2ccn(-c3ccc(-c4cn[nH]c4)cn3)c2=O)c1` (single isomer, unassigned) [Example 394, 1-(5-(1H-pyrazol-4-yl)pyridin-2-yl)-3-(1-(3-fluoro-5-methoxyphenyl)ethyl)-1H-imidazol-2(3H)-one] gave a pIC50 of 6.70 to 7.70. `COc1cc(F)cc(C(C)n2ccn(-c3ccc(-c4cn[nH]c4)c(OC)n3)c2=O)c1` (single isomer, unassigned) [Example 397, 1-(1-(3-fluoro-5-methoxyphenyl)ethyl)-3-(6-methoxy-5-(1H-pyrazol-4-yl)pyridin-2-yl)-1H-imidazol-2(3H)-one]: the pIC50 is over 8.70. `COc1cc(F)cc(C(C)n2ccn(-c3ccc(-c4cn[nH]c4)c(OC)n3)c2=O)c1` (single isomer, unassigned) [Example 398, 1-(1-(3-fluoro-5-methoxyphenyl)ethyl)-3-(6-methoxy-5-(1H-pyrazol-4-yl)pyridin-2-yl)-1H-imidazol-2(3H)-one] had a pIC50 of 7.70 to 8.68.

Compound `COc1cccc(C(C)n2ccn(-c3ccc(-c4ccnc(N)n4)cc3)c2=O)c1` (single isomer, unassigned) [Example 399, 1-(4-(2-aminopyrimidin-4-yl)phenyl)-3-(1-(3-methoxyphenyl)ethyl)-1H-imidazol-2(3H)-one] showed a pIC50 of 7.70 to 8.68.

Usually pIC50 stands for the negative decadic logarithm of the IC50, by convention in mol/L. Low values mean a large IC50, high ones a small IC50.

The values are drawn from patent US10123993B2, “Cyclic ureas as inhibitors of rock” (BRISTOL-MYERS SQUIBB COMPANY, priority 2015, dated 2018).
